According to patent US7781580B2, “Stilbene derivatives as new cancer therapeutic agents” (Virginia Commonwealth University, priority 2007, dated 2010):
Read-outs that look alike come from different tables or passages of the source.

Key:
[1] = water solubility of stilbene and carbamate prodrug (salts and free base); format: physicochemical
Protocol: Stilbene prodrugs may be made by attaching to a stilbene derivative of interest (e.g. a stilbene derivative with anti-tumor activity), chemical groups (or moieties) that render the stilbene derivative more water soluble than before such a modification is carried out. By “water soluble” we mean that more than 20 mg compound can be fully dissolved in 1 mL of water. Further, the chemical groups that are attached to the stilbene derivative to make the derivative water soluble are labile (i.e. removable) in that, upon exposure to in vitro or in vivo hydrolyzing conditions, the chemical groups are removed or dissociated from the stilbene derivative by hydrolysis, releasing the active, anti-tumor form of the stilbene derivative. The chemical groups which are attached may themselves be biologically active, and are, at least, not biologically injurious to cells or mammals. […] As illustrated, morfolinoethyl-urea, morfolinoethyl-carbamate and triethylene glycol (TEG) groups (5a, 5b, 5c, respectively) may be used for this purpose.

[2] = test system: tumor cell proliferation; test: suppression of tumor cell proliferation, cell line not stated; format: cell-based; settings: read-out: IC50, suppressing tumor cell proliferation
Protocol: (§1) Various cancer cell lines were grown in 96-well plates for drug sensitivity assays. Once cells achieved 50% confluence, the incubation media was changed to the same cell growth media with different concentrations of the tested compounds or vehicle alone. Cells were then incubated for 48 hours before the cell growth inhibition study. To determine the degree of cell growth inhibition, 1/10 volume of Alamar Blue™ solution was added to each well and optical density (OD) at 570 and 600 nm was determined. The percentage of growth inhibition was calculated according to the manufacturer's formula as follows: The percentage of growth is [(117216×A570)−(80586×A600)]/[(117216×A^o570)−(80586×A^o600)]×100. In this formula, A570 is the absorbance of the treated samples at 570 nm; A600 is the absorbance of the treated samples at 600 nm; A^o570 is the absorbance of the […] samples at 570 nm; and A^o600 is the absorbance of the untreated samples at 600 nm. The two constants, 117216 and 80586, are the extinction coefficients of Alamar Blue™ at 570 and 600 nm respectively. Each concentration was repeated in triplicate to minimize the error.

[3] = test system: UCI101 ovarian cancer cells; test: Alamar Blue cell growth inhibition, UCI101; format: cell-based; settings: UCI101, 48 hours
Protocol: Cell growth was measured by AlamarBlue™ staining and the percentage of cell growth inhibition was calculated and compared with the control cells that were treated with 0.1% DMSO, the vehicles for the stilbene compounds.
Cells were treated with the tested drug for 2 days before analysis of cell growth by Alamar Blue™ staining. Cells treated with 0.1% DMSO were used as control and set as 100%.
(a) In vitro sensitivity of UCI101 cells toward three potential stilbene prodrugs, 5a-c, was tested in 96-well plates using Alamar Blue™ assays to determine cell growth inhibition. […] (b) 5b induces cell cycle change and apoptosis in UCI101 cells. Cells were incubated with 5b at 1, 3, 10 μM for 16 hours followed by PI staining and flow cytometry analysis. A subG0/1 population, representing apoptotic cells, appeared along with a decrease of the G1/G2 ratio after cells were treated with 3 μM 5b. Higher concentration (10 μM) of 5b completely killed cells, as was the case with stilbene 4a at […]. (c) Cells treated with stilbene 4a and 5b were stained with phospho-histone 3B, a mitotic marker. The positive signals of phospho-histone 3B were shown in green and nuclei were stained with DAPI in blue. […] (d) In vivo efficacy of 5b compared with stilbene 4a. Nude mice were injected with UCI101 ovarian cancer cells and treated with 7 doses of 5b,c or stilbene 4a every 2-3 days. Tumor volume was calculated and plotted against days.
as §1
(§2) We first tested the cytotoxic effect of various stilbene derivatives for their in vitro efficacy of suppressing tumor cell proliferation. Cells were first plated in 96-well plates at 50% confluence and treated with 0, 0.01, 0.03, 0.1, 0.3, 1.0, 3.0, 10 μM concentrations of stilbene derivatives for 48 hours in triplicate. Alamar Blue™ reagent was added into each well at 1/10 volume and incubated for 2 hours before quantification of the absorbance at 570 and 600 nm.

[4] = test system: MiaPaCa2 pancreatic cancer cells; test: Alamar Blue cell growth inhibition, MiaPaCa2; format: cell-based
Protocol: as §1, §2

[5] = test system: MDA-MB231 breast cancer cells; test: Alamar Blue cell growth inhibition, MDA-MB231; format: cell-based
Protocol: Cell growth was measured by Alamar Blue™ staining and the percentage of cell growth inhibition was calculated and compared with control cells that were treated with 0.1% DMSO, the vehicles for the stilbene compounds.
as §1, §2

[6] = test system: SNU423 hepatocellular carcinoma cells; test: Alamar Blue cell growth inhibition, SNU423; format: cell-based
Summary of the method: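 Cells at 50% confluence were treated for 48 h in triplicate with 0-10 μM compound or 0.1% DMSO vehicle. Alamar Blue was added at 1/10 volume for 2 h, and absorbance at 570 and 600 nm gave % growth via the manufacturer's extinction-coefficient formula relative to vehicle controls.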

[7] = test system: Chk2−/− cells; test: cell cycle analysis, Chk2-/- MDA-MB231 derivative; format: cell-based; settings: 16 hours
Protocol: (§3) Cells were treated with various concentrations of stilbene 4a or CA4 for 16 hours followed by PI staining and FACscan analysis. […] A unique feature of stilbene 4a was noted when cells were treated with 30 nM.
(§4) Due to the structural similarity between stilbene 4a and CA4, we investigated the difference in the biological activity of these two compounds in MDA-MB231 breast cancer cells and their Chk2−/− derivatives. […] MDA-MB231 cells were treated with 10 nM stilbene 4a or 1 nM CA4. […] However, a difference in cell cycle change was observed following treatment with 30 nM of stilbene 4a versus 3 nM of CA4. […] This was also the case for cells treated with 100 nM stilbene 4a. A significant subG1/0 population was also noted. […] One possible effect could be a DNA damage response, which is a common mechanism of multiple chemotherapeutic agents but not one of pure microtubule-interfering agents such a paclitaxel or vincristine. […] We then obtained conditional Chk1−/− and Chk2−/− cells, which were derived from the same MDA-MB231 cells for the same flow cytometry analysis. […] In contrast, Chk2−/− cells were more sensitive to stilbene 4a. […] This mechanism is not obvious in higher drug concentrations at which the G2 arrest from microtubule interference is dominant. Therefore, in addition to their microtubule interfering effect, stilbenes have another mechanism to induce cell death. Thus, the use of a Chk2 inhibitor in combination with stilbenes may be a viable approach to enhancing the beneficial therapeutic effects of stilbenes.

[8] = test system: UCI101 ovarian cancer cells; test: Western blot of signal transduction events, UCI101; format: cell-based; settings: 36 hours
Protocol: All these agents are microtubule interfering agents but with different binding sites. Cells were harvested at 0, 4, 8, 16 and 36 hours after drug treatment for Western blot analysis. […] Phosphorylation of both Cdc25C and Cdc2 disappeared after 16 hours and slightly recovered at 36 hours. […] Akt phosphorylation decreased after 16 hours of treatment.
In order to understand the mechanism of resistance of stilbenes, various signal transduction pathways were investigated to examine how cells respond to stilbene treatment. UCI101 ovarian cancer cells were treated with stilbenes 4a, 4c or paclitaxel (Taxol) at 0.1 μM for 0, 4, 8, 16 and 36 hours. Cells were harvested for Western blotting. Changes in the kinases involved in cell cycle progression from G2-M transition were first determined in Cdc2, Cdc25c, and mitotic spindle check point regulator BubR1. […] 36 hours after treatment, rephosphorylation of Cdc2 was observed. […] The higher molecular weight isomer of Cdc25c, the mitotic form, increased at 16 and 36 hours. […] A similar study was then performed with other microtubule interfering agents such as combretastatin A4, 13a and vincristine for comparison. A similar trend was observed among these three microtubule interfering agents (FIG. 18).

[9] = test system: MDA-MB231 breast cancer cells; test: cell cycle analysis, MDA-MB231; format: cell-based; settings: 16 hours
Protocol: as §3, §4

[10] = test system: UCI101 cells; test: immunofluorescent staining of tubulin, UCI101; format: cell-based; settings: CA4 10 nM, stilbene 4a 100 nM, 5b 3 μM; 16 hours
Description: Nuclei were stained with DAPI.

[11] = test system: SKOV3 ovarian cancer cells; test: Alamar Blue cell growth inhibition, SKOV3; format: cell-based
Protocol: Cells were incubated with various concentrations of the compounds for 48 hours. Cell growth was measured by Alamar Blue™ staining and the percentage of cell growth inhibition was calculated and compared with the control cells that were treated with 0.1% DMSO, the vehicle for the stilbene compounds.
as §1

[12] = clinical studies; cited from earlier work
[13] = test system: Chk1−/− cells; test: cell cycle analysis, Chk1-/- MDA-MB231 derivative; format: cell-based
Protocol: as §4

[14] = test system: MDA-MB231 cells; test: immunofluorescent staining of tubulin, MDA-MB231; format: cell-based; settings: CA4 10 nM, stilbene 4a 100 nM, vincristine 100 nM, 5b 3 μM; 16 hours
Description: Nuclei were stained with 4′,6-diamidino-2-phenylindole (DAPI). Control cells show the reticular pattern of the microtubule network.

SMILES	water solubility (in words) [1]	IC50 [2] [nM]	relative potency / activity [3]	IC50 ([2]; cell line not stated) [nM]	effective concentration ([4]; MiaPaCa2, 48 hours)	effective concentration ([5]; MDA-MB231, 48 hours)	IC50 ([6]; Homo sapiens, SNU-423, 48 h, read-out: IC50 (50% growth inhibition), SNU423, 48 hours) [nM]	change of effective concentration versus MDA-MB231 [7]	phosphorylation of Chk1 [8]	cell cycle change at 10 nM stilbene 4a or 1 nM CA4 [9]	relative potency ([4]; MiaPaCa2)	microtubule pattern [10]	effective concentration ([11]; SKOV) [nM]	effective / active concentration ([11]; SKOV3, 48 hours) [µM]	dose above which cardiac toxicity, neurotoxicity and tumor pain were observed [12]	relative potency ([5]; MDA-MB231)	sensitivity versus MDA-MB231 [13]	microtubule pattern [14]	relative potency ([6]; SNU423)	effective concentration, blocking cell proliferation ([6]; SNU423, 48 hours) [µM]
COc1cc(/C=C\c2ccc(OC)cc2N)cc(OC)c1.O=C(O)C(=O)O [4b, (Z)2-[2-(3,5-Dimethoxy-phenyl)-vinyl]-5-methoxy-phenylamine oxalate]	enhanced by the formation of an oxalate salt	80	less active than stilbene 4a	–	–	–	–	–	–	–	–	–	–	–	–	–	–	–	–	–
COc1cc(O)cc(/C=C\c2ccc(OC)c(N)c2)c1.Cl [10d, (Z)-3-[2-(3-Amino-4-methoxy-phenyl)-vinyl]-5-methoxy-phenol, hydrochloride]	–	–	less active than stilbene 4a	1000	above 0.3 μM	above 0.3 μM	300 to 1000	–	–	–	–	–	–	–	–	–	–	–	–	–
COc1ccc(/C=C\c2cc(OC)c(OC)c(OC)c2)cc1O [combretastatin A4, (Z)-2-Methoxy-5-[2-(3,4,5-trimethoxy-phenyl)-vinyl]-phenol, reference compound]	–	–	most active compound	–	–	–	–	decreased by three fold	do not cause more phosphorylation of Chk1	No change was observed	most effective	complete disruption of microtubules	10	0.01	higher than 68 mg/m^2	most effective	more resistant	did not completely disrupt microtubule formation	most potent compound	0.003
